Data set [1] relates to Ras-less cells exogenously expressing K-Ras G12D. Briefly: EGF stimulation plus FB9 in G12D expressing RAS-less MEFS. It is filed as cell-based. The note with it: EGF for 30 and 60 minutes, FB9 at various concentrations. As to the method: FIG. 22. Cell Based Assays with G12D expressing RAS-less MEFS; Ras-less cells exogenously expressing K-Ras G12D were stimulated with EGF for 30 and 60 minutes. Concomitantly FB9 was added at various concentrations. Similar experiments were done with pancreatic cell lines expressing various oncogenic mutations. […] Growth curves were also performed.

Data set [2] in a line: Reactivity of FB9 with BME. The note with it: 1 mM FB9, 5 mM BME, 37° C., 55 minutes. It is filed as physicochemical. As to the method: FIGS. 20A-20C. Reactivity of Tetrafluorophenoxy-6B9 (FB9) with BME; experiment was done with 1 mM FB9 and minus or plus 5 mM BME at 37° C.
Data set [3] concerns the target T1, KRAS4b (1-188), unprocessed (Homo sapiens, UniProt P01116).
T1 construct: G (one extra N-terminal glycine before Met1, remnant of the construct) (N); made in house; host or cells: E. coli
The data set is described as follows: MALDI-TOF analysis of modification of unprocessed KRAS4b. It is filed as binding. As to the method:
FIG. 27. Comparing Gel Mobility and Antibody Reactivity of Different Purified K-Ras 4B Forms. E. Coli: unprocessed K-ras 4B purified from E. coli. Fme: processed K-ras 4B purified from SF9 cells. FB9: unprocessed K-ras 4B labeled with FB9 to about 70%.
Chemical modification of unprocessed KRAS-4b at His-95 (protein G-Hs.KRAS4b(1-188), mass (average) 21481.59 Da.
KRAS4b (FIG. 43) was modified by FB9 in vitro (using 8.8-fold molar excess of FB9 for 1 h at 37° C., followed by 16 h at room temperature, 22° C.). […] Molecular species with 1 and 2 and 3 modification groups were present (FIG. 44).
To identify the modified amino acid residues, the protein preparation was digested by protease Glu-C. […] Peptide with m/z 1735 corresponds to sequence GKKKKKKSKTKCVIM (SEQ ID NO: 3) (174-189) and m/z 2085 corresponds to the same peptide modified by FB9 at Cys-186 (confirmed by fragmentation).
To identify other potential residues modified by FB9, peptides obtained after digestion by Glu-C were further digested by trypsin (FIG. 46A).

In a further data set the target is T2, K-Ras G12D (Homo sapiens, UniProt P01116, G12D).
T2 construct: Rec full length G12D became loaded with either GDP or GTPyS and Mg2+; His tag
The data set is described as follows: Covalent binding of electrophile compounds to K-Ras G12D (mass spectrometry). As to the method:
FIGS. 13A-13E. […] FIG. 13B and FIG. 13D were performed after 5 hours. FIG. 13C and FIG. 13E were performed at 23 hours.
FIGS. 15A-15D. Experiments with Stereoisomers of Difluorophenoxy-6B9; Kras G12D/GTPyS/Mg2+, DMSO control, 2 h incubation at RT; The binding of FB9 to Kras G12D was compared with the stereoisomers of Difluorophenoxy-6B9 (53, 54); FB9 bound 100% after 2 h incubation; Difluorophenoxy-6B9 (compound ‘53’) bound to about 62% compared to FB9 under the same condition; The stereoisomer (‘54’) of compound ‘53’ bound to roughly 35% compared to FB9 which is roughly 50% of compound ‘53’; Partial stereospecific interaction.

In the next data set the target is T3, fmeKRAS4b (Homo sapiens, UniProt P01116).
T3 construct: GG (two N-terminal glycines in place of Met1, remnant of the construct) (N); made in house; host or cells: SF9 insect cells
Briefly: MALDI-TOF analysis of modification of processed (farnesylated, carboxymethylated) KRAS4b. The data set is classed as binding. As to the method: FIG. 36. Modification of fmeKRAS4b by FB9. Recombinant fmeKRAS4b was loaded with GDP or GppNHp (a nonhydrolyzable analogue of GTP), then reacted with FB9 at 37° C. for 100 min.
Modification of processed (farnesylated and carboxylmethylated KRAS4b). Protein prep GG-HsKRAS-4b, RP1151105092454 FmeKRAS4b (FIG. 47A) was modified by FB9 with 7.6-fold molar excess of FB9 for 1 h at 37° C., followed by 16 h at room temperature (22° C.). […] To identify the modified amino acid residues protein preparation was digested by trypsin.
During fragmentation, these modified peptides yielded intensive fragment corresponding to unmodified peptide and fragments of peptide (mostly without modification).
These peptides were modified on His residues. To identify which His was modified (i.e. 95 or 96 in the sequence of used recombinant KRAS) fragmentation spectra were analyzed in BioTools when FB9 modification (C17H20Cl1N2O4, 350/351) was set on one of these His residues in Sequence Editor.
In fragmentation spectrum of 1554 a fragment 825.409 was present but not in a spectrum of 1203. When FB9 modification was on His-7 this fragment was assigned by BioTools as modified y-3. Manual examination of the spectrum confirmed this conclusion.

A further data set has as its system Kras. Briefly: Interaction of FB9 with Kras in the absence or presence of BME. It is filed as binding, human. The note with it: RT.

“Also recorded” adds a separate entry of the source.

Consider `COc1ccc(Cl)cc1C(=O)N1CCC[C@H](C(=O)NCC(=O)COc2c(F)c(F)cc(F)c2F)C1` [FB9, (3S)-1-[(5-Chloro-2-methoxyphenyl)carbonyl]-N-[2-oxo-3-(2,3,5,6-tetrafluorophenoxy)propyl]piperidine-3-carboxamide], for which, in data set [1], the K-Ras protein levels result is on record as “Changes at K-Ras protein levels are visible”. For the same compound, the “product formed with BME (reduction of the free compound peak)” value in data set [2] is given as “about 25%”. Also, the “extent of chemical modification of unprocessed KRAS4b” value in data set [3] (8.8-fold molar excess of FB9, 1 h at 37° C., then 16 h at 22° C.) is recorded as “close to complete”. Further, the “unprocessed K-ras 4B labeled with FB9” value in data set [3] (protein preparation used for gel mobility comparison) is recorded as “about 70%”. The “bound better than enantiomer FB9D” value at K-Ras G12D (K-Ras (G12D), GTPyS/Mg, 50 μM for 2.5 h at RT) is 25-30%. Also, on K-Ras G12D (K-Ras/GDP/Mg2+, 5 h), the “labelling at a second site” value is reported as “significantly labelled at a second site after 5 h”. The “bound to Kras G12D” value at K-Ras G12D (Kras G12D/GTPyS/Mg2+, 2 h incubation at RT) amounted to 100%. In addition, the “binding to GTPyS versus GDP bound K-Ras G12D” value on K-Ras G12D (~10 μM protein, 100 μM compound, RT, 5 and 23 hours) is listed as “bound better when K-Ras was in complex with GTPyS/Mg2+”. Moreover, the “extent of chemical modification of FmeKRAS4b” value at fmeKRAS4b (7.6-fold molar excess of FB9, 1 h at 37° C., then 16 h at 22° C.) is recorded as “major form represented species with 1 added modification group”. For the same compound, at fmeKRAS4b (37° C. for 100 min, 350 Da mass addition), the “covalent modification, GDP versus GppNHp loaded protein” value is “more pronounced when GTP analogue was present”. Further, the “residue modified in FME-Kras4B” value on fmeKRAS4b (recombinant farnesylated-carboxymethylated protein) is reported as “covalently modifies histidine 95 residue (H95); also recorded: His7 (i.e. H95 in the native protein) is modified”. Moreover, the “reactivity with Kras when BME is titrated in” value in the data set with Kras is on record as “reactivity of the compound being reduced”.

Values taken from patent US11541044B2, “K-Ras modulators” (The Regents of the University of California, priority 2015, dated 2023).
